Source: patent US4272437A, “Antibacterial agents, and 4-thio azetidinone intermediates” (priority 1979, dated 1981)
Converted amounts (≈) assume the structure as drawn. Where two headings read alike, the source gives them in different places.

Key:
[1] = system: Str. pneumoniae A-9585; assay: MIC, tube dilution, Streptococcus pneumoniae A9585; format: cell-based; details: Streptococcus pneumoniae, A9585, Str. pneumoniae A9585; overnight 37° C., Nutrient Broth; read-out: Minimum Inhibitory Concentration (M.I.C.)
Text: (§1) Representative compounds of the present invention were subjected to in vitro antibiotic screening against a variety of microorganisms.

[2] = system: Str. pyogenes A-9604; assay: MIC, tube dilution, Streptococcus pyogenes A9604; format: cell-based; details: Streptococcus pyogenes, A9604, Str. pyogenes A9604; overnight 37° C., Nutrient Broth; read-out: Minimum Inhibitory Concentration (M.I.C.)
Text: as §1

[3] = system: Staph. aureus A-9537; assay: MIC, tube dilution, Staphylococcus aureus A9537; format: cell-based; details: Staphylococcus aureus, A9537, Staph. aureus A9537; overnight 37° C., Nutrient Broth; read-out: Minimum Inhibitory Concentration (M.I.C.)
Text: as §1

[4] = system: Staph. aureus A-9537 and 50% serum; assay: MIC, tube dilution, Staph. aureus A9537 + 50% serum; format: cell-based, Staphylococcus aureus; details: overnight 37° C.; for MIC: Staphylococcus aureus, read-out: Minimum Inhibitory Concentration (M.I.C.)
Text: as §1

[5] = system: Staph. aureus (Pen-Res) A-9606; assay: MIC, tube dilution, Staphylococcus aureus A9606 (Pen-Res); format: cell-based; details: Staphylococcus aureus, overnight 37° C.
Text: as §1

[6] = system: Staph. aureus (Meth-Res) A-15097; assay: MIC, tube dilution, Staphylococcus aureus A15097 (Meth-Res); format: cell-based; details: Staphylococcus aureus, overnight 37° C.
Text: as §1

[7] = system: Str. faecalis A-20688; assay: MIC, tube dilution, Streptococcus faecalis A20688; format: cell-based; details: Enterococcus faecalis, A20688, Str. faecalis A20688; overnight 37° C.; read-out: Minimum Inhibitory Concentration (M.I.C.)
Text: as §1

[8] = system: E. coli A-15119; assay: MIC, tube dilution, Escherichia coli A15119; format: cell-based; details: overnight 37° C.; for MIC: Escherichia coli, A15119, E. coli A15119, read-out: Minimum Inhibitory Concentration (M.I.C.)
Text: as §1

[9] = system: E. coli A-20341-1; assay: MIC, tube dilution, Escherichia coli A20341-1; format: cell-based
Text: as §1

[10] = system: K. pneumoniae A-15130; assay: MIC, tube dilution, Klebsiella pneumoniae A15130; format: cell-based; details: overnight 37° C.; for MIC: Klebsiella pneumoniae, A15130, K. pneumoniae A15130, read-out: Minimum Inhibitory Concentration (M.I.C.)
Text: as §1

[11] = system: Klebsiella species A20468; assay: MIC, tube dilution, Klebsiella species A20468; format: cell-based; details: Klebsiella species (K. pneumoniae) A20468; overnight 37° C.; read-out: Minimum Inhibitory Concentration (M.I.C.)
Text: as §1

[12] = system: Pr. mirabilis A-9900; assay: MIC, tube dilution, Proteus mirabilis A9900; format: cell-based; details: overnight 37° C.; for MIC: Proteus mirabilis, A9900, Proteus mirabilis A9900, read-out: Minimum Inhibitory Concentration (M.I.C.)
Text: as §1

[13] = system: Pr. vulgaris A-9716; assay: MIC, tube dilution, Proteus vulgaris / Proteus mirabilis A9716; format: cell-based, Proteus vulgaris (name changed to Proteus mirabilis); details: overnight 37° C.; for MIC: Proteus vulgaris
Text: as §1

[14] = system: Pr. morganii A-15153; assay: MIC, tube dilution, Proteus morganii A15153; format: cell-based; details: Morganella morganii, A15153, Proteus morganii A15153; overnight 37° C.; read-out: Minimum Inhibitory Concentration (M.I.C.)
Text: as §1

[15] = system: Providencia stuartii A21205; assay: MIC, tube dilution, Providencia stuartii (Pr. rettgeri) A21205; format: cell-based; details: Providencia stuartii
Text: as §1

[16] = system: Ser. marcescens A-20019; assay: MIC, tube dilution, Serratia marcescens A20019; format: cell-based; details: overnight 37° C.; for MIC: Serratia marcescens, A20019, Serratia marcescens A20019, read-out: Minimum Inhibitory Concentration (M.I.C.)
Text: as §1

[17] = system: Ent. cloacae A-9659; assay: MIC, tube dilution, Enterobacter cloacae A9659; format: cell-based; details: overnight 37° C.; for MIC: Enterobacter cloacae, A9659, Enterobacter cloacae A9659, read-out: Minimum Inhibitory Concentration (M.I.C.)
Text: as §1

[18] = system: Ent. cloacae A-9656; assay: MIC, tube dilution, Enterobacter cloacae A9656; format: cell-based; details: overnight 37° C., read-out: Minimum Inhibitory Concentration (M.I.C.)
Text: as §1

[19] = system: Ps. aeruginosa A-9843A; assay: MIC, tube dilution, Pseudomonas aeruginosa A9843A; format: cell-based; details: Pseudomonas aeruginosa, A9843A, read-out: Minimum Inhibitory Concentration (M.I.C.), Pseudomonas aeruginosa A9843A; overnight 37° C.
Text: as §1

[20] = system: Ps. aeruginosa A-21213; assay: MIC, tube dilution, Pseudomonas aeruginosa A21213; format: cell-based; details: overnight 37° C., read-out: Minimum Inhibitory Concentration (M.I.C.)
Text: as §1

[21] = read-out: Minimum Inhibitory Concentration (M.I.C.), Staph. aureus A9606 (Pen-Res)
[22] = read-out: Minimum Inhibitory Concentration (M.I.C.), Staph. aureus A15097 (Meth-Res)
[23] = Escherichia coli, A203411; E. coli A20341-1; overnight 37° C.; read-out: Minimum Inhibitory Concentration (M.I.C.)
[24] = A9716, read-out: Minimum Inhibitory Concentration (M.I.C.), Proteus vulgaris / Proteus mirabilis A9716
[25] = A21205, read-out: Minimum Inhibitory Concentration (M.I.C.)

Q: COCC1=C(C(=O)[O-])N2C(=O)C[C@H]2S1.[Na+] [Preparation 6, Sodium 2-Methoxymethylpenem-3-carboxylate] was tested. Which MIC [1] did it give?
A: 0.06 µg/mL

Q: What about the MIC [2] of the same compound?
A: 0.25 µg/mL

Q: And the MIC [3]?
A: 0.5 µg/mL

Q: What about the MIC [4] of the same compound?
A: 32 µg/mL

Q: What about the MIC [5, 21] of the same compound?
A: 2 µg/mL

Q: And the MIC [6, 22]?
A: > 125 µg/mL

Q: And the MIC [7]?
A: 32 µg/mL

Q: What about the MIC [8] of the same compound?
A: 2 µg/mL

Q: What about the MIC [9, 23] of the same compound?
A: 125 µg/mL

Q: What about the MIC [10] of the same compound?
A: 8 µg/mL

Q: What about the MIC [11] of the same compound?
A: > 125 µg/mL

Q: What about the MIC [12] of the same compound?
A: 2 µg/mL

Q: And the MIC [13, 24]?
A: 2 µg/mL

Q: What about the MIC [14] of the same compound?
A: 4 µg/mL

Q: What about the MIC [15, 25] of the same compound?
A: 2 µg/mL

Q: What about the MIC [16] of the same compound?
A: 4 µg/mL

Q: And the MIC [17]?
A: 4 µg/mL

Q: And the MIC ([18]; Enterobacter cloacae A9656)?
A: 8 µg/mL

Q: And the MIC [19]?
A: > 125 µg/mL

Q: And the MIC ([20]; Pseudomonas aeruginosa A21213)?
A: > 125 µg/mL

Q: O=C([O-])C1=C(COCc2ccccc2)S[C@@H]2CC(=O)N12.[Na+] [Preparation 14 (Na^+ Salt), Sodium 2-(Benzyloxymethyl)penem-3-carboxylate] was tested. Which MIC [1] did it give?
A: 0.03 µg/mL

Q: And the MIC [2]?
A: 0.06 µg/mL

Q: What about the MIC [3] of the same compound?
A: 0.5 µg/mL

Q: And the MIC [4]?
A: 32 µg/mL

Q: What about the “Minimum Inhibitory Concentration (M.I.C.)” value [4] of the same compound?
A: 63 µg/mL

Q: What about the MIC [5, 21] of the same compound?
A: 32 µg/mL

Q: And the MIC [6, 22]?
A: > 125 µg/mL

Q: What about the MIC [7] of the same compound?
A: 32 µg/mL

Q: What about the “Minimum Inhibitory Concentration (M.I.C.)” value ([8]; E. coli A15119) of the same compound?
A: 8 µg/mL

Q: And the MIC [8]?
A: 16 µg/mL

Q: And the MIC [9, 23]?
A: > 125 µg/mL

Q: What about the “Minimum Inhibitory Concentration (M.I.C.)” value ([10]; K. pneumoniae A15130) of the same compound?
A: > 125 µg/mL

Q: What about the MIC [10] of the same compound?
A: 125 µg/mL

Q: What about the MIC [11] of the same compound?
A: > 125 µg/mL

Q: And the “Minimum Inhibitory Concentration (M.I.C.)” value ([12]; Proteus mirabilis A9900)?
A: 1 µg/mL

Q: What about the MIC [12] of the same compound?
A: 2 µg/mL

Q: And the “Minimum Inhibitory Concentration (M.I.C.)” value ([13]; Proteus vulgaris / Proteus mirabilis A9716)?
A: 2 µg/mL

Q: What about the MIC [13, 24] of the same compound?
A: 4 µg/mL

Q: And the MIC [14]?
A: 16 µg/mL

Q: And the MIC [15, 25]?
A: 63 µg/mL

Q: And the “Minimum Inhibitory Concentration (M.I.C.)” value ([16]; Serratia marcescens A20019)?
A: 125 µg/mL

Q: And the MIC [16]?
A: 63 µg/mL

Q: What about the “Minimum Inhibitory Concentration (M.I.C.)” value ([17]; Enterobacter cloacae A9659) of the same compound?
A: 63 µg/mL

Q: What about the MIC [17] of the same compound?
A: 32 µg/mL

Q: What about the MIC ([18]; Enterobacter cloacae A9656) of the same compound?
A: 125 µg/mL

Q: What about the MIC [19] of the same compound?
A: > 125 µg/mL

Q: What about the MIC ([20]; Pseudomonas aeruginosa A21213) of the same compound?
A: > 125 µg/mL

Q: Which results are given for O=C(O)C1=C(c2ccco2)SC2CC(=O)N12 (stereo not shown) [Preparation 13, 2-(2'-Furyl)penem-3-carboxylic Acid]?
A: MIC [1]: 1 µg/mL (≈ 4.22 µM); MIC [2]: 1 µg/mL (≈ 4.22 µM); MIC [3]: 1 µg/mL (≈ 4.22 µM); MIC [4]: > 32 µg/mL; MIC ([5]; Staph. aureus A9606 (Pen-Res), read-out: Minimum Inhibitory Concentration (M.I.C.)): 8 µg/mL (≈ 33.7 µM); MIC ([6]; Staph. aureus A15097 (Meth-Res), read-out: Minimum Inhibitory Concentration (M.I.C.)): 16 µg/mL (≈ 67.4 µM); MIC [7]: 32 µg/mL (≈ 135 µM); MIC [8]: 8 µg/mL (≈ 33.7 µM); MIC ([9]; Escherichia coli, A203411, E. coli A20341-1; overnight 37° C.; read-out: Minimum Inhibitory Concentration (M.I.C.)): > 63 µg/mL; MIC [10]: 32 µg/mL (≈ 135 µM); MIC [11]: > 63 µg/mL; MIC [12]: 4 µg/mL (≈ 16.9 µM); MIC ([13]; A9716, Proteus vulgaris / Proteus mirabilis A9716, read-out: Minimum Inhibitory Concentration (M.I.C.)): 4 µg/mL (≈ 16.9 µM); MIC [14]: 32 µg/mL (≈ 135 µM); MIC ([15]; A21205, Providencia stuartii (Pr. rettgeri) A21205, overnight 37° C., read-out: Minimum Inhibitory Concentration (M.I.C.)): 4 µg/mL (≈ 16.9 µM); MIC [16]: 16 µg/mL (≈ 67.4 µM); MIC [17]: 63 µg/mL (≈ 266 µM); MIC ([18]; Enterobacter cloacae, A9656, Enterobacter cloacae A9656): 63 µg/mL (≈ 266 µM); MIC [19]: > 63 µg/mL; MIC ([20]; Pseudomonas aeruginosa, A21213, Pseudomonas aeruginosa A21213): > 63 µg/mL
